Results: patent US20160244435A1, “EXPANDED THERAPEUTIC POTENTIAL IN NITROHETEROARYL ANTIMICROBIALS” (The Regents of the University of California, priority 2013, published 2016)
Read-outs that look alike come from different tables or passages of the source.

Columns and labels:
[1] = test system: Mz-sensitive (MzS) G. lamblia strain 713; test: Giardia 48 h growth and survival assay (ATP read-out), Mz-sensitive line; type: cell-based, Giardia lamblia; details: Giardia duodenalis; sensitive 713 line (MzS cells)
[2] = test system: Mz-resistant (MzR) G. lamblia 713 line; test: microbe, parasite or virus in culture; type: cell-based, Giardia lamblia
G. lamblia GS/M = test: Murine Giardia infection model; type: in vivo, C57BL/6 mice; details: single oral dose, data not shown
Giardia = details: cited from earlier work
[3] = regimen not stated or depending on dosing regimens

Compound: Cc1ncc([N+](=O)[O-])n1CCO [Mz, metronidazole]
- EC50 [1]: 2 µM
- residual activity in MzR compared to MzS cells, 100%×(EC50 in MzS/EC50 in MzR) ([2]; 713 syngeneic pair): 4%
- EC50 ([2]; Giardia duodenalis): 50 µM
- lowest single dose that eradicates giardiasis in at least half of infected mice (G. lamblia GS/M): 100 mg/kg
- efficacy (Giardia; single-dose treatment): 20-60%
- efficacy (cases in which effective) (Giardia; three daily 250 mg oral doses for 5-10 days): 80-95%

Compound: CCCSc1ccc2nc(NC(=O)OC)[nH]c2c1 [albendazole]
- efficacy (Giardia; [3]): 25-90%

Compound: O=C1OCCN1/N=C/c1ccc([N+](=O)[O-])o1 [furazolidone]
- efficacy (Giardia; [3]): 80-85%

Compound: CC(=O)Oc1ccccc1C(=O)Nc1ncc([N+](=O)[O-])s1 [nitazoxanide]
- efficacy (Giardia; two daily 500 mg doses for three days): 70-80%

Compound: CCN(CC)CCCC(C)Nc1c2ccc(Cl)cc2nc2ccc(OC)cc12 (stereo not shown) [quinacrine]
- efficacy (Giardia; [3]): up to 90%
